{"source": "paper PMC5505701", "about": "“Somatostatin binds to the human amyloid β peptide and favors the formation of distinct oligomers” (eLife, 2017)", "key": {"[1]": {"tested_on": "tau phosphorylated at pSer202/pThr205 (AT8) and pThr231 (AT180) in primary hippocampal neurons", "experiment": "Primary hippocampal neuron tau phosphorylation assay (Western blot)", "conditions": "for reduction in tau phosphorylation at AT8, pre-aggregated peptide alone: peptide subjected to pre-aggregation step, no Aβ; for effect on oAβ1-42-induced tau hyperphosphorylation: peptide added together with oAβ1-42"}, "[2]": {"tested_on": "oligomeric versus monomeric Aβ1-42 (Aβ1-42-biotin bait)", "experiment": "Affinity capture interactome Experiment III (oAβ1-42-biotin vs mAβ1-42-biotin)", "conditions": "TMT; for Experiment III oAβ1-42-B/mAβ1-42-B Ratio: oligomeric versus monomeric bait, human frontal lobe digitonin extract, pH 8.0, 4°C overnight"}, "[3]": {"tested_on": "oligomeric Aβ1-42 (oAβ1-42-biotin bait)", "experiment": "Affinity capture interactome Experiment II (C-terminally tethered oAβ1-42-biotin vs biotin)", "conditions": "enrichment relative to biotin-only negative control; human frontal lobe digitonin extract; TMT; pH 8.0, 4°C overnight"}, "[4]": {"biological_target": "T1, Aβ1-40 (Homo sapiens, UniProt P05067)", "T1 construct": "Aβ1-40 (catalog number AS-24236); purchased Anaspec, Inc. (Fremont, CA, USA) AS-24236; host or cells: synthetic peptide", "T1 sequence (P05067 672-711 limits assumed)": "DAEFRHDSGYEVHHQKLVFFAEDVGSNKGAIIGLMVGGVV", "experiment": "ThT fluorescence Aβ1-40 aggregation assay", "format": "biochemical", "conditions": "5 to 10 times higher peptide concentrations", "from_the_text": "(§1) Next, Western blot analyses of ThT assay fractions were undertaken without or with prior boiling in SDS. […] Only when SDS was present in the sample buffer, low mass bands appeared in the Western blot that migrated at a level expected for the monomeric Aβ peptide, consistent with the interpretation that these peptides were released from larger oligomeric or fibrillar aggregates under denaturing conditions (see also Figure 5).\n(§2) Assay procedures were largely based on a protocol described by Sarah Linse’s group ([Hellstrand et al., 2010]). […] 100 μL of peptide solutions were supplemented with 25 μM thioflavin T (ThT) (catalog number T3516, Sigma-Aldrich Canada, Oakville, ON, Canada) and loaded into 96-Well Half-Area Microplates (catalog number 675096, Greiner Bio One International, Kremsmünster, Austria). The subsequent plate incubation proceeded at 37°C with shaking at 700 rpm for 4 of every 5 min in a microplate reader (CLARIOstar, BMG Labtech, Guelph, ON, Canada) for overall durations specified in individual figures. ThT fluorescence was measured every 5 min at excitation and emission wavelengths of 444 nm and 485 nm, respectively."}, "[5]": {"tested_on": "Aβ1-42 and Aβ17-42 biotin baits", "experiment": "iTRAQ affinity capture with four baits (biotin, biotin-Aβ1-42, Aβ1-42-biotin, Aβ17-42-biotin)", "format": "binding", "conditions": "oAβ1-42-biotin versus N-terminally biotinylated Aβ1-42, Aβ17-42-biotin and biotin; human frontal lobe extract", "from_the_text": "This conclusion was strengthened by the fact that this peptide is naturally preceded by a tryptic cleavage site and the exquisite match between observed and in silico predicted fragment ions (Figure 2B). In light of the high intensity ion counts of fragments observed for this peptide and its robust co-enrichment with oAβ1-42-B in three biological replicates (Figure 2C), it first seemed puzzling that the identification of this protein group was not corroborated by other spectra that map to sequences outside of the ‘NFFWK’ sequence stretch. Searching for a plausible explanation, it became apparent that preprosomatostatin and preprocortistatin give rise to cyclic neuropeptide hormones through a series of posttranslational trimming steps, and the ‘NFFWK’ peptide is the only tryptic peptide derived from the mature hormone that is of sufficient length and distinct sequence to be readily identifiable by MS (Figure 2A). […] This conclusion was further corroborated by two additional PSMs that mapped to regions outside the SST14 neuropeptide sequence and one additional five amino acid peptide of the sequence ‘TFTSC’ that could be assigned (albeit not unambiguously) to the mature SST14 neuropeptide sequence itself."}, "[6]": {"biological_target": "T2, Aβ1-42 (Homo sapiens, UniProt P05067)", "T2 construct": "purchased Anaspec, Inc. (Fremont, CA, USA) AS-24224; host or cells: synthetic peptide", "T2 sequence (P05067 672-713 limits assumed)": "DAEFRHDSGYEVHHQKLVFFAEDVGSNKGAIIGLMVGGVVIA", "experiment": "Western blot of ThT assay fractions: oligomeric complexes of Aβ1-42", "format": "biochemical", "conditions": "for SDS-stable complex with three Aβ1-42 peptides: five-fold increased Aβ1-42 level", "from_the_text": "as §1"}, "[7]": {"biological_target": "T2, Aβ1-42", "experiment": "Thioflavin T (ThT) fluorescence Aβ1-42 aggregation assay", "format": "biochemical", "protocol": "as §2"}, "[8]": {"biological_target": "T2, Aβ1-42", "experiment": "Western blot / silver stain detection of Aβ1-42 after incubation with SST14 or CST17", "format": "biochemical", "protocol": "Initially, we were interested in observing the influence of incubation time on sample composition (Figure 5B)."}, "[9]": {"biological_target": "Aβ1-42-TMR (Homo sapiens, UniProt P05067)", "sequence (P05067 672-713 limits assumed)": "as above", "experiment": "FRET competition assay (Edans-SST14 / Aβ1-42-TMR)"}}, "note": "Entries after “also recorded” stand apart in the source; their conditions may differ. No end group written: not given here.", "data": [{"compound": "oxytocin: control neuropeptide, Anaspec AS-24275", "values": [{"measurement": "reduction in tau phosphorylation at AT8, pre-aggregated peptide alone", "setting": "[1]", "value": "not seen"}]}, {"compound": "Ras-related protein Rab-1A: human brain protein", "values": [{"measurement": "Experiment III oAβ1-42-B/mAβ1-42-B Ratio", "setting": "[2]", "value": 3.28}]}, {"compound": "DnaJ homolog subfamily A member 2: human brain protein", "values": [{"measurement": "Experiment III oAβ1-42-B/mAβ1-42-B Ratio", "setting": "[2]", "value": 6.10}]}, {"compound": "Cofilin-1: human brain protein", "values": [{"measurement": "Experiment II oAβ1-42-B/B Ratio", "setting": "[3]", "value": 1.75}, {"measurement": "Experiment III oAβ1-42-B/mAβ1-42-B Ratio", "setting": "[2]", "value": 5.34}]}, {"compound": "bombesin", "values": [{"measurement": "reduction in tau phosphorylation at AT8, pre-aggregated peptide alone", "setting": "[1]", "value": "not seen"}]}, {"compound": "Aβ1-40: synthetic human Aβ1-40, Anaspec AS-24236", "values": [{"measurement": "lag phase of Aβ1-40 aggregation", "setting": "[4]; peptide alone", "value": 45, "unit": "min"}]}, {"compound": "2,4-dienoyl-CoA reductase, mitochondrial: human brain protein", "values": [{"measurement": "Experiment III oAβ1-42-B/mAβ1-42-B Ratio", "setting": "[2]", "value": 4.32}]}, {"compound": "CST29: preprocortistatin-derived regulatory peptide, Bachem H-6458 (QEGAPPQQSARRDRMPCRNFFWKTFSSCK; ends and bridges not checked; cysteine pairing not given here; UniProt O00230 77-105, looked up)", "values": [{"measurement": "effect on oAβ1-42-induced tau hyperphosphorylation", "setting": "[1]", "value": "did not prevent the anticipated tau hyperphosphosphorylation-inducing effect of oAβ1-42 exposure"}]}, {"compound": "Transforming protein RhoA: human brain protein", "values": [{"measurement": "Experiment III oAβ1-42-B/mAβ1-42-B Ratio", "setting": "[2]", "value": 5.74}]}, {"compound": "SST28: longer bioactive version of somatostatin, Anaspec AS-22902 (SANSNPAMAPRERKAGCKNFFWKTFTSC; ends and bridges not checked; cysteine pairing not given here; UniProt P61278 89-116, looked up)", "values": [{"measurement": "effect on oAβ1-42-induced tau hyperphosphorylation", "setting": "[1]", "value": "did not prevent the anticipated tau hyperphosphosphorylation-inducing effect of oAβ1-42 exposure"}]}, {"compound": "Dihydropyrimidinase-related protein 1: human brain protein", "values": [{"measurement": "Experiment II oAβ1-42-B/B Ratio", "setting": "[3]", "value": 1.39}, {"measurement": "Experiment III oAβ1-42-B/mAβ1-42-B Ratio", "setting": "[2]", "value": 3.71}]}, {"compound": "Dihydropyrimidinase-related protein 3: human brain protein", "values": [{"measurement": "Experiment II oAβ1-42-B/B Ratio", "setting": "[3]", "value": 1.42}, {"measurement": "Experiment III oAβ1-42-B/mAβ1-42-B Ratio", "setting": "[2]", "value": 3.40}]}, {"compound": "Pyruvate kinase isozymes M1/M2: human brain protein", "values": [{"measurement": "Experiment II oAβ1-42-B/B Ratio", "setting": "[3]", "value": 1.68}, {"measurement": "Experiment III oAβ1-42-B/mAβ1-42-B Ratio", "setting": "[2]", "value": 4.33}]}, {"compound": "Carbohydrate kinase domain-containing protein: human brain protein", "values": [{"measurement": "Experiment II oAβ1-42-B/B Ratio", "setting": "[3]", "value": 2.17}, {"measurement": "Experiment III oAβ1-42-B/mAβ1-42-B Ratio", "setting": "[2]", "value": 1.72}]}, {"compound": "NFFWK", "values": [{"measurement": "capture by Aβ baits (iTRAQ signature ion intensity)", "setting": "[5]", "value": "the free N-terminus is indeed essential for this peptide-peptide interaction"}, {"measurement": "binding preference for oligomeric versus monomeric Aβ1-42-biotin (in words)", "setting": "[2]; Experiment III, human frontal lobe extract", "value": "binds preferentially to oligomeric (pre-aggregated) but not monomeric Aβ1-42-biotin"}]}, {"compound": "[Arg8]-vasopressin [AVP]", "values": [{"measurement": "formation of 50-60 kDa Aβ1-42 bands (in words)", "setting": "[6]; 18 hr co-incubation, 6E10", "value": "not seen in samples incubated either without these peptides or with AVP"}, {"measurement": "SDS-stable complex with three Aβ1-42 peptides", "setting": "[6]; Western blot", "value": "never observed in fractions lacking SST14 (or CST17) or containing AVP"}, {"measurement": "reduction in tau phosphorylation at AT8, pre-aggregated peptide alone", "setting": "[1]", "value": "not seen"}, {"measurement": "lag phase extension of Aβ1-42 aggregation", "setting": "[7]; 15 μM SST14 (or control peptide), SEC-purified Aβ1-42, 25 μM ThT, 37°C, shaking 700 rpm", "value": "No delay was observed"}]}, {"compound": "CST17: preprocortistatin-derived regulatory peptide, Bachem H-5536", "values": [{"measurement": "intensity of homodimeric Aβ1-42 bands", "setting": "[6]; Western blot lanes 17-20", "value": "reduced"}, {"measurement": "size of SDS-resistant heterodimeric complex with mAβ1-42", "setting": "[6]; Western blot, x-42 and 6E10 antibodies", "value": "5-6 kDa"}, {"measurement": "detection of 50-60 kDa bands by antibody directed against C-terminus of Aβ1-42", "setting": "[6]; boiled in SDS", "value": "escaped detection with an antibody directed against the C-terminus of Aβ1-42"}, {"measurement": "SDS-stable complex with three Aβ1-42 peptides", "setting": "[6]; Western blot", "value": "occasionally observed signals that migrated at molecular masses expected for SDS-stable complexes consisting of three Aβ1-42 peptides"}, {"measurement": "intensity of HMM 6E10 signals", "setting": "[8]; 18 hr incubation, 6E10 Western blot", "value": "only very weak HMM signals"}, {"measurement": "concentration dependence of 6E10-reactive blot signals", "setting": "[8]; 18 hr incubation, varying SST14 or CST17 concentration", "value": "inverse correlation"}, {"measurement": "masking of Aβ1-42 detection by antibodies 6E10, 4G8, 12F4", "setting": "[8]; 18 hr incubation, 4G8 and 12F4 not shown", "value": "masked the ability of these antibodies to bind to Aβ1-42"}, {"measurement": "silver-stain Aβ1-42 signal", "setting": "[8]; silver-stain of same fractions", "value": "relatively stronger Aβ1-42 signals"}, {"measurement": "effect on oAβ1-42-induced tau hyperphosphorylation", "setting": "[1]", "value": "did not prevent the anticipated tau hyperphosphosphorylation-inducing effect of oAβ1-42 exposure"}, {"measurement": "potentiation of tau hyperphosphorylation with monomeric Aβ1-42", "setting": "[1]; pre-incubated peptide 4 µM + mAβ1-42 5 µM, 24 hr exposure", "value": "potentiate tau hyperphosphorylation"}, {"measurement": "lag phase extension of Aβ (Aβ1-42) aggregation", "setting": "[7]; 5 to 10 times higher peptide concentrations, SST14 not shown", "value": "approximately one hour"}, {"measurement": "concentration dependence of effect on Aβ1-42 aggregation", "setting": "[7]; ThT, 37°C", "value": "concentration-dependent inhibition of Aβ1-42-dependent ThT fluorescence"}, {"measurement": "relative potency versus SST14 in interfering with Aβ1-42 aggregation", "setting": "[7]; compared with SST14 (at 15 μM in ThT assay)", "value": "more potent in this regard than SST14; also recorded: even more pronounced effects on Aβ aggregation than SST14"}, {"measurement": "inhibition of Aβ1-42-dependent ThT incorporation", "setting": "[7]; peptide 15 μM, 37°C, 25 μM ThT", "value": "completely abrogated ThT incorporation"}, {"measurement": "lag phase extension of Aβ (Aβ1-40) aggregation", "setting": "[4]; SST14 not shown", "value": "approximately one hour"}]}, {"compound": "C[C@H](N)C(=O)NCC(=O)N[C@H]1CSSC[C@@H](C(=O)O)NC(=O)[C@H](CO)NC(=O)[C@H]([C@@H](C)O)NC(=O)[C@H](Cc2ccccc2)NC(=O)[C@H]([C@@H](C)O)NC(=O)[C@H](CCCCN)NC(=O)[C@H](Cc2c[nH]c3ccccc23)NC(=O)[C@H](Cc2ccccc2)NC(=O)[C@H](Cc2ccccc2)NC(=O)[C@H](CC(N)=O)NC(=O)[C@H](CCCCN)NC1=O", "note": "[SST14, somatostatin-14]", "values": [{"measurement": "EC50", "setting": "[9]", "value": 12.7, "unit": "µM"}]}, {"compound": "ATP synthase subunit beta, mitochondrial: human brain protein", "values": [{"measurement": "Experiment III oAβ1-42-B/mAβ1-42-B Ratio", "setting": "[2]", "value": 2.61}]}, {"compound": "Cathepsin D: human brain protein", "values": [{"measurement": "Experiment III oAβ1-42-B/mAβ1-42-B Ratio", "setting": "[2]", "value": 2.10}]}, {"compound": "Interleukin enhancer-binding factor 2: human brain protein", "values": [{"measurement": "Experiment III oAβ1-42-B/mAβ1-42-B Ratio", "setting": "[2]", "value": 1.41}]}]}
